pIC50: −log10 of the molar value.
Test: Inhibition of Escherichia coli DXR by spectrophotometric method

Q: With `O=CN(O)CCCP(=O)(O)O` [FOSMIDOMYCIN] as the compound, how does the pIC50 read?
A: 7.52
